Legend:
Assay in all cases: radiometric filter-binding kinase assay, Kinase HotSpot
Conditions in all cases: compound 0.5 µM; ATP 10 µM
[1] = target: ABL1 (human) (UniProt P00519)
[2] = target: ACVR1 (human) (UniProt Q04771)
[3] = target: AURKB (human) (UniProt Q96GD4)
[4] = target: BLK (human) (UniProt P51451)
[5] = target: BTK (human) (UniProt Q06187)
[6] = target: CDK1 CCNA2 (human) (UniProt P06493+P20248)
[7] = target: CSNK2A2 (human) (UniProt P19784)
[8] = target: DCLK2 (human) (UniProt Q8N568)
[9] = target: DYRK1A (human) (UniProt Q13627)
[10] = target: EGFR (human) (UniProt P00533)
Sequence of EGFR (human) (P00533 whole entry, looked up): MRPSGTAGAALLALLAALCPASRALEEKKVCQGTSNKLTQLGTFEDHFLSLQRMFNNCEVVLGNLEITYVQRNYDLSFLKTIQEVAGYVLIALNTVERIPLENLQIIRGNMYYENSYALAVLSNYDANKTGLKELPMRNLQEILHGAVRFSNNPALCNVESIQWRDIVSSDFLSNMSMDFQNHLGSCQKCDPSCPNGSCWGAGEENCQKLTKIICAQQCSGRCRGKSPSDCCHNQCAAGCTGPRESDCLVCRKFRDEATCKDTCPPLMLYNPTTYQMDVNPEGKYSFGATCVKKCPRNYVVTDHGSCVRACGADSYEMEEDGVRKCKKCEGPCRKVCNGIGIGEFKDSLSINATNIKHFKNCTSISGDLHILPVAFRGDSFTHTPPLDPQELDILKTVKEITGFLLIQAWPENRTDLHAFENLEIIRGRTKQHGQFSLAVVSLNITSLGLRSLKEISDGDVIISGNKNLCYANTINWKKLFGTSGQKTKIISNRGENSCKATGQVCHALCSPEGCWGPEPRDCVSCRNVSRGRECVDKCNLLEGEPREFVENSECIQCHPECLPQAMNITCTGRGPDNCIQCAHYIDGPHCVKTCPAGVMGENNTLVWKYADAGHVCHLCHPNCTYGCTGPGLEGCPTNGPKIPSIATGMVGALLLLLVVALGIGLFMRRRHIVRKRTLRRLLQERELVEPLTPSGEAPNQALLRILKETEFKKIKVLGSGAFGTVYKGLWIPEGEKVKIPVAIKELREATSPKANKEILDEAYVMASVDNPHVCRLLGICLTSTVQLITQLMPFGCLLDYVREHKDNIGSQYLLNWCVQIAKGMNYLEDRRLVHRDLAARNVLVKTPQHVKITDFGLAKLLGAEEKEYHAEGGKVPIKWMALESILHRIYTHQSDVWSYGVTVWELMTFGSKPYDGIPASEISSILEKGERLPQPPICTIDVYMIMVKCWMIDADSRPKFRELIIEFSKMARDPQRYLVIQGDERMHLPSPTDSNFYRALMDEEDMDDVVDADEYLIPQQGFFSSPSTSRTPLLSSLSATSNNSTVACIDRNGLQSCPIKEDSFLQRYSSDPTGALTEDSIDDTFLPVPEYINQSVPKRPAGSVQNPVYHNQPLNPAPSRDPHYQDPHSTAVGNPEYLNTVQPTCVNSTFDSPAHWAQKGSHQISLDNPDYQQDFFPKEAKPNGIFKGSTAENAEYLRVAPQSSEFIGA

[11] = target: EPHA3 (human) (UniProt P29320)
[12] = target: EPHA5 (human) (UniProt P54756)
[13] = target: FER (human) (UniProt P16591)
[14] = target: FGR (human) (UniProt P09769)
[15] = target: FLT1 (human) (UniProt P17948)
[16] = target: FRK (human) (UniProt P42685)
[17] = target: GSG2 (human) (UniProt Q8TF76)
[18] = target: HIPK3 (human) (UniProt Q9H422)
[19] = target: IGF1R (human) (UniProt P08069)
[20] = target: IKBKB (human) (UniProt O14920)
[21] = target: MAP2K2 (human) (UniProt P36507)
[22] = target: MAP3K2 (human) (UniProt Q9Y2U5)
[23] = target: MAPKAPK2 (human) (UniProt P49137)
Sequence of MAPKAPK2 (human) (P49137 whole entry, looked up): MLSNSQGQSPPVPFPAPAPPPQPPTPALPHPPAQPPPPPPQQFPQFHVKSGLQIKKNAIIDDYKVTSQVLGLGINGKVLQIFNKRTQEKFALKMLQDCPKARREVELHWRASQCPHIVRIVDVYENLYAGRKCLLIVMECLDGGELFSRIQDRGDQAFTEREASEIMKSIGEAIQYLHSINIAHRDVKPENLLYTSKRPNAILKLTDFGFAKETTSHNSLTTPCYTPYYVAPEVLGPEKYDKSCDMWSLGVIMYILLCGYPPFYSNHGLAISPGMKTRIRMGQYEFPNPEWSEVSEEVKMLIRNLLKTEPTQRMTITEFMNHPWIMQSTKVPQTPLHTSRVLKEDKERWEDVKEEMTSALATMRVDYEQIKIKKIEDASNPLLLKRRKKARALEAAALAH

[24] = target: MYLK2 (human) (UniProt Q9H1R3)
Sequence of MYLK2 (human) (Q9H1R3 whole entry, looked up): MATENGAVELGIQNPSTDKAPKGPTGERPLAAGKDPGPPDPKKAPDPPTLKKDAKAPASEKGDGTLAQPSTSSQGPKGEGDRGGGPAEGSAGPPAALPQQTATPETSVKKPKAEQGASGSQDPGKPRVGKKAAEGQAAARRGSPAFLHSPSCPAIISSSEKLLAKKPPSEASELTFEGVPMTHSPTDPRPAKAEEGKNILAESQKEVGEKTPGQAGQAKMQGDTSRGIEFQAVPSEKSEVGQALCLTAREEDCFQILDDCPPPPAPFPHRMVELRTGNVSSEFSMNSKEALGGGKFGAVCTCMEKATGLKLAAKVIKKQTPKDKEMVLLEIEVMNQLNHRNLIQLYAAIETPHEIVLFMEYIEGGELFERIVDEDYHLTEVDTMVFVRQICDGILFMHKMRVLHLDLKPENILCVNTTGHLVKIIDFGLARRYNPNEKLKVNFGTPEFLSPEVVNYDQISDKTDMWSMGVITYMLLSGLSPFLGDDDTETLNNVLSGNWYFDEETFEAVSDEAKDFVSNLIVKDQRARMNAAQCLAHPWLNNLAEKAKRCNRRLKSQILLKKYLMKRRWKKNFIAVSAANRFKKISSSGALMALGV

[25] = target: PAK6 (human) (UniProt Q9NQU5)
[26] = target: PDGFRB (human) (UniProt P09619)
[27] = target: PNCK (human) (UniProt Q6P2M8)
[28] = target: PRKCB1 (human) (UniProt P05771)
[29] = target: PRKCD (human) (UniProt Q05655)
[30] = target: RET (human) (UniProt P07949)
Sequence of RET (human) (P07949 whole entry, looked up): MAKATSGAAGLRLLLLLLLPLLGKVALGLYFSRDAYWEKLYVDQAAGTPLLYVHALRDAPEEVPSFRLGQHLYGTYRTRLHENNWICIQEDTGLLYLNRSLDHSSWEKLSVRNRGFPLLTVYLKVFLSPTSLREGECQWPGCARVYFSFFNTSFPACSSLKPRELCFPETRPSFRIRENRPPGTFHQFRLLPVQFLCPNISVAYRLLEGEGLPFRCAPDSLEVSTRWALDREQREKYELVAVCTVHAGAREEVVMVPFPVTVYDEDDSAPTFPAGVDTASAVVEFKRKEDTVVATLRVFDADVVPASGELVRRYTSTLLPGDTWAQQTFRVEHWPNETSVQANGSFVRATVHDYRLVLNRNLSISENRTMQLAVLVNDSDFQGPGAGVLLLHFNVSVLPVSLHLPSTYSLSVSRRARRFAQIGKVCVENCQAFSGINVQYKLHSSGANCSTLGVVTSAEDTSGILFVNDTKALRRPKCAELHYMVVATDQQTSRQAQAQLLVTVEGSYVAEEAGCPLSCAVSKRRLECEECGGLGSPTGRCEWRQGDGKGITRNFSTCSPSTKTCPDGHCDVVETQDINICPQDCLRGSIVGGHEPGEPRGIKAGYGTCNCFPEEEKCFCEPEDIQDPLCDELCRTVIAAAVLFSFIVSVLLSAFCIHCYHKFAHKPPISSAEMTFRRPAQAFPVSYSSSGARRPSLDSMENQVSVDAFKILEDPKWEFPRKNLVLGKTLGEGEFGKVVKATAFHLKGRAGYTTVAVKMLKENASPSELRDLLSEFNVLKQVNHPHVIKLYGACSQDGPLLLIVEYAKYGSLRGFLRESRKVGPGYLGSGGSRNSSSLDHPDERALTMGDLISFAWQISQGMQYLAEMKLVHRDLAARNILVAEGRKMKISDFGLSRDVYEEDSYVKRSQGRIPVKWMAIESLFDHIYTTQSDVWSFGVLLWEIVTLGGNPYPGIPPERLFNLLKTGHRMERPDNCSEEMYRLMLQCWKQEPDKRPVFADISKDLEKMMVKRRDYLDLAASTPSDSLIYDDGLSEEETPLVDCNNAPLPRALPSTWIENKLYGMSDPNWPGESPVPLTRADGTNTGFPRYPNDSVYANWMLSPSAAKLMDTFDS

[31] = target: ROS1 (human) (UniProt P08922)
[32] = target: STK24 (human) (UniProt Q9Y6E0)
Sequence of STK24 (human) (Q9Y6E0 whole entry, looked up): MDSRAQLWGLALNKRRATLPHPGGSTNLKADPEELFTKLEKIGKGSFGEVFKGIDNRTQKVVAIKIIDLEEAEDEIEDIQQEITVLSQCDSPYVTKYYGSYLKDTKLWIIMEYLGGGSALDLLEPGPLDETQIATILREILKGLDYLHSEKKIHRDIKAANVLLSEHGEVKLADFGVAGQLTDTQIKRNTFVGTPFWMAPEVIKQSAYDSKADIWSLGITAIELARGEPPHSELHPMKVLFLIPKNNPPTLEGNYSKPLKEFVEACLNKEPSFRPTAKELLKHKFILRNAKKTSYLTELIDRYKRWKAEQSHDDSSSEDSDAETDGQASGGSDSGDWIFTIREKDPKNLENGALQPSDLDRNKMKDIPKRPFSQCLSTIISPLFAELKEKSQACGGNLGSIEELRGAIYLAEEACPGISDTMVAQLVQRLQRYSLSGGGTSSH

[33] = target: STK4 (human) (UniProt Q13043)
[34] = target: ZAP70 (human) (UniProt P43403)
[35] = system: ARAF (human), P10398 [Y301D/Y302D]
[36] = target: BRAF (human) (UniProt P15056)

Sequence of CDK1 CCNA2 (human) (P06493 whole entry, looked up): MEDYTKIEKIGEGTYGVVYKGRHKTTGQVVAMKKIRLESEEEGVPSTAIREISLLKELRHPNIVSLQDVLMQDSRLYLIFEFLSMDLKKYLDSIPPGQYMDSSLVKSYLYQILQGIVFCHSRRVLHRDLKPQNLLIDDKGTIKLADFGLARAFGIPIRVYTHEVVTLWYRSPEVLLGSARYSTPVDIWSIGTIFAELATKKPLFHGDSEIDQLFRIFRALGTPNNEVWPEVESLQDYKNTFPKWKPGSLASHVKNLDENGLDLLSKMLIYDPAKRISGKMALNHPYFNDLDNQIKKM
Sequence of CDK1 CCNA2 (human) (P20248 whole entry, looked up): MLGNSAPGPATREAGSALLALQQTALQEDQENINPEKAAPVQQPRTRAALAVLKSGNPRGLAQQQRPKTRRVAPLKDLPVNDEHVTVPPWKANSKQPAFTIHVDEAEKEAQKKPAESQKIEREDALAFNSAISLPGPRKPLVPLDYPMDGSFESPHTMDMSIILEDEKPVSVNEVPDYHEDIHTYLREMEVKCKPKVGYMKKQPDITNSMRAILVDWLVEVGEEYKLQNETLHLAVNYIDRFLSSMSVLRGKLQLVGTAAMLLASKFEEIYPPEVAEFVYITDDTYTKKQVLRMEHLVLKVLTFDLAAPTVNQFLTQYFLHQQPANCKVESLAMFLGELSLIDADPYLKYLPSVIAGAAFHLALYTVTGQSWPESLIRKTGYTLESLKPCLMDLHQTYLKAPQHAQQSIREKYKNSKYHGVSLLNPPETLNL
Sequence of ACVR1 (human) (Q04771 whole entry, looked up): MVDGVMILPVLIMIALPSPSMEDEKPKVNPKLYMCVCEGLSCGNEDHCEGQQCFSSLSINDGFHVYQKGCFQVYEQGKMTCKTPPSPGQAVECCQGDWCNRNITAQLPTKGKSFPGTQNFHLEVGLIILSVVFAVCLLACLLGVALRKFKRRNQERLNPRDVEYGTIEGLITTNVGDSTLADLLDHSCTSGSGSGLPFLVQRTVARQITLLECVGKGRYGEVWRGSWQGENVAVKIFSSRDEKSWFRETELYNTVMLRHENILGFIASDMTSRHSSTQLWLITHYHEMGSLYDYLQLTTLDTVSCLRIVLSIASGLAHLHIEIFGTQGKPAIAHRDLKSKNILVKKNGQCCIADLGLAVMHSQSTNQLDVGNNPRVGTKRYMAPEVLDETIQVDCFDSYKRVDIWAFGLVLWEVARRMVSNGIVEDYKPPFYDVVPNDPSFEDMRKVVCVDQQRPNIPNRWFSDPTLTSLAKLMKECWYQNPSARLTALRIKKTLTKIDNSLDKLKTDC

Compound	residual activity [2]	residual activity [4]	residual activity [5]	residual activity [6]	residual activity [7]	residual activity [8]	residual activity [9]	residual activity [11]	residual activity [12]	residual activity [13]	residual activity [14]	residual activity [15]	residual activity [16]	residual activity [17]	residual activity [18]	residual activity [19]	residual activity [20]	residual activity [21]	residual activity [22]	residual activity [23]	also measured
O=c1cc(-c2cccc3c2Sc2ccccc2S3)oc(N2CCOCC2)c1	97.5%	96.2%	104%	104%	96%	106%	95%	119%	114%	103%	84.9%	90.8%	99.5%	106%	105%	98.2%	101%	81.8%	92.7%	94.2%	residual activity [1]: 99.5%; residual activity [3]: 95.8%; residual activity [10]: 107%; residual activity [24]: 97.4%; residual activity [25]: 95.6%; residual activity [26]: 102%; residual activity [27]: 109%; residual activity [28]: 103%; residual activity [29]: 91.9%; residual activity [30]: 82.4%; residual activity [31]: 106%; residual activity [32]: 97.8%; residual activity [33]: 95%; residual activity [34]: 97.1%
O=C(NC(NC(=S)Nc1ccc(F)c([N+](=O)[O-])c1)C(Cl)(Cl)Cl)C(c1ccccc1)c1ccccc1 (stereo unspecified)	98.8%	110%	104%	101%	97%	108%	99.8%	105%	107%	104%	84.5%	97.2%	103%	109%	105%	93.7%	102%	82.3%	96.8%	96.3%	residual activity [1]: 101%; residual activity [3]: 95.3%; residual activity [10]: 108%; residual activity [24]: 104%; residual activity [25]: 101%; residual activity [26]: 105%; residual activity [27]: 115%; residual activity [28]: 103%; residual activity [29]: 91.2%; residual activity [30]: 103%; residual activity [31]: 99.5%; residual activity [32]: 92.8%; residual activity [33]: 96.2%; residual activity [34]: 94.2%
O=C1Cc2c([nH]c3ccc([N+](=O)[O-])cc23)-c2ccccc2N1	79.7%	94.2%	98.2%	54.5%	64.4%	105%	86.2%	97.8%	98.6%	75.1%	50.3%	98.2%	97.2%	106%	96.6%	93%	102%	92.5%	78%	77.4%	residual activity [1]: 57.7%; residual activity [35]: 96.2%; residual activity [3]: 85.9%; residual activity [36]: 99.5%; residual activity [24]: 94.8%; residual activity [25]: 101%; residual activity [26]: 87.4%; residual activity [27]: 107%; residual activity [28]: 105%; residual activity [29]: 79.8%; residual activity [30]: 81.6%; residual activity [31]: 80.2%; residual activity [32]: 66.4%; residual activity [33]: 52.3%; residual activity [34]: 91.4%
Nc1nc(Nc2ccc(S(N)(=O)=O)cc2)nn1C(=S)Nc1c(F)cccc1F	60.4%	38.6%	84.1%	-0.154%	81.9%	40.4%	15.3%	85.9%	56.7%	21.7%	17.1%	11.4%	70.6%	85.3%	78.2%	0.625%	49.3%	96.6%	-0.498%	91.1%	residual activity [1]: 4.96%; residual activity [35]: 129%; residual activity [3]: 12.9%; residual activity [36]: 87.2%; residual activity [24]: 66.6%; residual activity [25]: 81.9%; residual activity [26]: 45.6%; residual activity [27]: 89.1%; residual activity [28]: 75.2%; residual activity [29]: 22.2%; residual activity [30]: 3.09%; residual activity [31]: 1.68%; residual activity [32]: 2.88%; residual activity [33]: 2.16%; residual activity [34]: 86.9%
Nc1nc(Nc2ccc(S(N)(=O)=O)cc2)nn1C(=O)c1c(F)cccc1F	104%	90.1%	87.1%	10.3%	97.5%	85.3%	101%	107%	92.2%	82%	63.5%	90.7%	90.9%	107%	91.2%	86.9%	105%	85.6%	11.3%	95.8%	residual activity [35]: 93.1%; residual activity [36]: 55%; residual activity [10]: 97%; residual activity [24]: 96.1%; residual activity [25]: 101%; residual activity [26]: 89.1%; residual activity [27]: 107%; residual activity [28]: 88.2%; residual activity [29]: 81.2%; residual activity [30]: 54.1%; residual activity [31]: 39.5%; residual activity [32]: 76.9%; residual activity [33]: 19.9%; residual activity [34]: 94.8%
O=C1Nc2ccccc2/C1=C\c1c(Cl)[nH]c2ccccc12	100%	95.4%	94.6%	103%	94.3%	93.5%	107%	95.1%	83.4%	91.8%	90.5%	88.6%	100%	91%	100%	105%	106%	98.7%	94%	101%	residual activity [1]: 95.2%; residual activity [3]: 97.9%; residual activity [10]: 97.5%; residual activity [24]: 94.6%; residual activity [25]: 101%; residual activity [26]: 102%; residual activity [27]: 92.9%; residual activity [28]: 105%; residual activity [29]: 88.4%; residual activity [30]: 93%; residual activity [31]: 109%; residual activity [32]: 81.5%; residual activity [33]: 91%; residual activity [34]: 106%

From the kinase profiling compilation of Christmann-Franck et al. (2016)
